Measurements published in ChEMBL document CHEMBL1201862, “PubChem BioAssay data set” (2004).
Calls of active or inactive are those of the source. For most assays here, no stated cut-off is given here; in the data, actives have a measured EC50 and inactives only a lower limit.

How the values were obtained:
cells [1] = format: functional, cell-based
cells [2] = format: functional, cell-based; remark: listed apart in the source
[3] = test system: Streptococcus sp. 'group A'; assay: Streptococcus pyogenes SK(-)GAS viability under kanamycin – luminescence, BacTiterGlo, confirmation, counter-screen for streptokinase expression inhibitor project, dose response (AID 1900); format: functional, organism-based
Streptococcus = assay: GAS UMAA2166 growth inhibition – luminescence, BacTiterGlo, counter-screen for streptokinase expression inhibitor project, dose response (AID 1915); format: functional, organism-based;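 further: potency for reduction of bacterial viability or growth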
[4] = microbe, parasite or virus in culture; format: functional; settings: Mycobacterium tuberculosis
[5] = Luminescence Cell-Based Dose Confirmation HTS to Identify Activators of 5'UTR Stem-Loop Driven Alpha-Synuclein mRNA Translation in H4 Neuroglioblastoma Cells. [Related pubchem assays: 1829 (Project Summary), 1814 (Primary HTS)]; format: functional
H4 = assay: Luminescence Cell-Based Dose Response HTS to Identify Activators of 5'UTR Stem-Loop Driven Prion Protein mRNA Translation in H4 Neuroglioblastoma Cells. [Related pubchem assays: 1829 (Project Summary), 1814 (Primary HTS)]; format: functional; settings: Homo sapiens
[6] = Luminescence Cell-Based Dose Response HTS to Identify Activators of Luciferase Translation or Activity in H4 […] Cells. [Related pubchem assays: 1829 (Project Summary), 1814 (Primary HTS)]; format: functional
[7] = fluconazole-exposed Candida albicans growth modulators – fluorescence, retest, confirmation (AID 2467); format: functional, cell-based
[8] = NIH-3T3 fibroblast cytotoxicity, dose response, cytotoxicity control, cell-based, fluorescence, Alamar Blue, secondary assay (AID 2327); format: functional;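 further: NIH-3T3 mouse fibroblasts cultured with fluconazole at 8 µg/mL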
[9] = Trypanosoma cruzi growth suppression in host cells – NIH3T3 host cells, beta-gal luminescence, confirmation (AID 2044); format: functional, cell-based;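 further: intracellular parasites grown in NIH/3T3 mouse fibroblasts as host cells; luminescent beta-galactosidase reporter signal from transgenic T. cruzi replicating inside host cells; inhibitors lower the luminescence signal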
[10] = NIH3T3 cell viability loss – ATP luminescence, mouse fibroblasts, counter-screen, dose response (AID 2010); format: functional, cell-based;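 further: cells exposed to compound for about 90 hours before reading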
INS1 = assay: INS-1E survival protection against cytokine death – cell-based, luminescence, retest, dose response (AID 449756); format: functional; settings: Rattus norvegicus;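 further: cell death triggered by IL-1 beta plus TNF-alpha plus IFN-gamma mixture; protective hits raise ATP signal compared with cytokine alone wells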
Protein RecA = molecular target: T1, Protein RecA (Mycobacterium tuberculosis, UniProt P9WHJ3); assay: Fluorescence Cell-Free Homogeneous Dose Retest to Identify Inhibitors of RecA-Intein Splicing Activity. [Related pubchem assays (depositor defined):AID2097, AID2223, AID489010, AID492950]; format: functional
T1 sequence (P9WHJ3 whole entry): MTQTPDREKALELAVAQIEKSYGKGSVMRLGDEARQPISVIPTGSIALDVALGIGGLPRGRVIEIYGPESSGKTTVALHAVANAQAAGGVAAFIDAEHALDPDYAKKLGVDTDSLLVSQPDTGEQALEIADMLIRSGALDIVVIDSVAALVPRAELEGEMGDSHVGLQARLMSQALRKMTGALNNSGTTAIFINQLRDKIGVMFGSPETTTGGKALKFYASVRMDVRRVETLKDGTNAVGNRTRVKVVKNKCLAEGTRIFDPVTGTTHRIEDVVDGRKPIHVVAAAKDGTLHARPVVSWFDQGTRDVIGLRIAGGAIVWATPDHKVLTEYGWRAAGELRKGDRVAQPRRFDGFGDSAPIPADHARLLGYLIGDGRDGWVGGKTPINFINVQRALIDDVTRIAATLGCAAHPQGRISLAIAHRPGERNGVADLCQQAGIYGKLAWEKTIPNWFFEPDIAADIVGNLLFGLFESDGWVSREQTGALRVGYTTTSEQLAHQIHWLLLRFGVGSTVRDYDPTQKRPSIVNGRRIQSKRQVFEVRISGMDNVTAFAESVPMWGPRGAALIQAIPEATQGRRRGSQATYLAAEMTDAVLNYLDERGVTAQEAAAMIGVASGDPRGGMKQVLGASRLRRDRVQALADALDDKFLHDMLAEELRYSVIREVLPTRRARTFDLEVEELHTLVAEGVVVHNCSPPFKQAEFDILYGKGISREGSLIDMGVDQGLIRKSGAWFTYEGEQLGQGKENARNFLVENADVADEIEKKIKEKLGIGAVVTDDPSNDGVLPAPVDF

[11] = molecular target: T2, Replicative DNA helicase DnaB (Mycobacterium tuberculosis, UniProt P9WMR3); assay: DnaB intein splicing inhibitors, dose response, biochemical, cell-free fluorescence (AID 449749); format: functional
T2 sequence (P9WMR3 whole entry): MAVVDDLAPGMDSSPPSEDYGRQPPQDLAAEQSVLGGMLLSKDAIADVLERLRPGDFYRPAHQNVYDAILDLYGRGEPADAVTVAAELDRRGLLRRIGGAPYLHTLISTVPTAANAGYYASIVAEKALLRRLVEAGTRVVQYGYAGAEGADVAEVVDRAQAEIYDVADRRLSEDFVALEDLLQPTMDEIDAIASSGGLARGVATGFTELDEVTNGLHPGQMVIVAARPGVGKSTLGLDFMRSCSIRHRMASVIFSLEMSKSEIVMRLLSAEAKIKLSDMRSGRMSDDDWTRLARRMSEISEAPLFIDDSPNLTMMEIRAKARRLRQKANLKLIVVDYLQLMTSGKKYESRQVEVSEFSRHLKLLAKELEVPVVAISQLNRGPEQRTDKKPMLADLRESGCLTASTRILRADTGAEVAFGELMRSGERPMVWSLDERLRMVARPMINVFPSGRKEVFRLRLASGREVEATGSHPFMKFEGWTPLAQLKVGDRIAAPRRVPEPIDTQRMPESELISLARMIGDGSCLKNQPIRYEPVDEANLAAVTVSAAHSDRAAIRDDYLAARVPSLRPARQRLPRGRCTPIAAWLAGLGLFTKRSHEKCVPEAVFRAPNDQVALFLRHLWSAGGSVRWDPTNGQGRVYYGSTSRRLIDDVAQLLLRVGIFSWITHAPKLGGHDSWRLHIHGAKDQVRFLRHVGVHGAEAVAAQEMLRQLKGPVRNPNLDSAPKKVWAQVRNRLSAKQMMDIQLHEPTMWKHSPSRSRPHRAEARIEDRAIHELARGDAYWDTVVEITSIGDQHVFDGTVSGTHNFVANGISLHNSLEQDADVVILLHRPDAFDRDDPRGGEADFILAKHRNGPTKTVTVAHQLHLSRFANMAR

Streptokinase A = molecular target: T3, Streptokinase A (Streptococcus pyogenes serotype M1, UniProt P10520); assay: viability-normalized secreted streptokinase activity reduction – plasminogen activation absorbance, OD405, dose response (AID 1914); format: functional, Streptococcus pyogenes M1 GAS;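 further: secreted streptokinase activity via plasminogen activation per viability signal from cell pellet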
T3 sequence (P10520 whole entry): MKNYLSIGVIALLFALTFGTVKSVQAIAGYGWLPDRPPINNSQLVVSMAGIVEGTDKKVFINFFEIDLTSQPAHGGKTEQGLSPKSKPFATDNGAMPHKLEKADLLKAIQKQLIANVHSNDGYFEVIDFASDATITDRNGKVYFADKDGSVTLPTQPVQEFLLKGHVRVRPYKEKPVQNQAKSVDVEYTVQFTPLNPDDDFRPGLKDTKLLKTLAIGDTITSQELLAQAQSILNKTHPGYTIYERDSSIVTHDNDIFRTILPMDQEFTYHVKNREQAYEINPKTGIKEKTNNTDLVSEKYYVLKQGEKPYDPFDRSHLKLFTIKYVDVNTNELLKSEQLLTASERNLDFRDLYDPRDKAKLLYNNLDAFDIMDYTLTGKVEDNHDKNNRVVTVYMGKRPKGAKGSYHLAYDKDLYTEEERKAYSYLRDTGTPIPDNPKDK

[12] = molecular target: T4, Calpain-2 catalytic subunit (Sus scrofa, UniProt P43367); assay: m-calpain protease blockers, concentration series – biochemical, fluorogenic peptide substrate, dose response (AID 1420); format: functional
T4 sequence (P43367 whole entry): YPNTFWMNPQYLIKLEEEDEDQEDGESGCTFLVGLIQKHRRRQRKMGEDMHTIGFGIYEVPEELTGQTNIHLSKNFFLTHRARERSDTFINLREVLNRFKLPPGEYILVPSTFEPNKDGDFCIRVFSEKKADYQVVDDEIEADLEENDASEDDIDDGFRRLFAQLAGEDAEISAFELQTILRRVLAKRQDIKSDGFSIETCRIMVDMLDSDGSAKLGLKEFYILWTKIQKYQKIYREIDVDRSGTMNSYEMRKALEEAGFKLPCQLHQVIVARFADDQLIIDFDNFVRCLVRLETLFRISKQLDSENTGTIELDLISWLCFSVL

O=C(c1ccc(OC2CCN(CCc3ccccc3)CC2)cc1)N1CCCC(CCCO)C1 (stereo unspecified)
EC50 (cells [1]): > 350 µM (not active)
EC50 (cells [2]): > 350 µM (not active)

O=C(Nc1nc(-c2ccccn2)cs1)c1ccc(S(=O)(=O)N2CCCCC2)cc1
EC50 [3]: 0.879 µM (active)
EC50 (cells [1]): 13.4 µM (active)
EC50 (cells [2]): > 350 µM (not active)
EC50 (Streptococcus): 2.56 µM (active)

CN(Cc1cccs1)C(=O)CSc1nc(N)cc(N)n1
EC50 (cells [1]): > 350 µM (not active)
EC50 (cells [2]): > 350 µM (not active)

CCc1ccc(NC(=S)/N=C(\N)Nc2nc(C)c3cc(CC)ccc3n2)cc1
CC50 [4]: 17.4 µM (active)

Cc1ccc(NC2=NC(=O)c3cccc([N+](=O)[O-])c32)cc1
EC50 [5]: 77.8 µM (active)
EC50 (H4): 26.8 µM (active)
EC50 [6]: 26.7 µM (active)

N#C/C(=C(/O)c1ccc(F)cc1)c1nc2ccccc2s1
EC50 (cells [1]): > 350 µM (not active)
EC50 (cells [2]): 7.41 µM (active)

Cc1ccc(-c2nc3nc4ccccc4nc3n2Cc2ccco2)cc1
EC50 [5]: 21.9 µM (active)
EC50 [6]: 13.2 µM (active)

CCc1ccc2oc(-c3ccc(OC)cc3)cc(=Nc3c(C)n(C)n(-c4ccccc4)c3=O)c2c1
EC50 [7]: > 38 µM (not active)
EC50 [8]: > 160 µM (inactive)
EC50 [9]: 1.94 µM (active)
CC50 [4]: 27.6 µM (active)
EC50 [10]: > 60 µM (not active)

CC(=O)N1CCOc2ccc(S(=O)(=O)N3CCCCC3)cc21
EC50 [5]: > 120 µM (not active)
EC50 (H4): > 120 µM (not active)
EC50 [6]: > 120 µM (not active)

CCOC(=O)c1ccccc1NC(=O)COc1coc(CN2CCc3ccccc32)cc1=O
CC50 [4]: > 40 µM (active)

CCOc1ccc(/C=N/Nc2ccc(Cl)nn2)c(O)c1
AC50 (INS1): 1.77 µM (active)
CC50 [4]: 18.4 µM (active)

Cn1c(CO)nc2c3ccccc3ccc21
EC50 (cells [1]): > 350 µM (not active)
EC50 (cells [2]): > 350 µM (not active)

Cc1cccc(N2CCN(CCCNC(=O)c3ccc(NC(=O)C4=CSCCO4)cc3)CC2C)c1 (stereo unspecified)
CC50 [4]: > 40 µM (active)

CCOC(=O)c1c(NC(=O)CCl)sc(CN(C)C)c1-c1ccccc1
EC50 (Protein RecA): 7.5 µM (active)
AC50 [11]: 20.4 µM (active)
CC50 [4]: 12.5 µM (active)

O=C(O)C1CC=CCC1C(=O)N1CCN(c2nc(-c3ccccc3Cl)c3cc(Br)ccc3n2)CC1 (stereo unspecified)
CC50 [4]: 38.3 µM (active)

Cc1ccc(S(=O)(=O)N(C)CC(=O)NCCCn2ccnc2)cc1
EC50 (cells [1]): > 350 µM (not active)
EC50 (cells [2]): > 350 µM (not active)

CC(C)C[C@H](NC(=O)c1[nH]cnc1C(=O)N[C@H](C)c1ccccc1)C(=O)OC(C)(C)C
EC50 [3]: 3.86 µM (active)
EC50 (Streptokinase A): > 150 µM (not active)
EC50 (Streptococcus): 9.3 µM (active)
IC50 [12]: 11.7 µM (not active)

CCOC(=O)/C(=N/Nc1ccc(OC)cc1)N1CCCc2ccccc21
CC50 [4]: > 40 µM (active)

O=C(Cn1c(Cc2ccccc2)nc2ccccc21)NCc1ccc2c(c1)OCO2
EC50 (cells [1]): > 350 µM (not active)
EC50 (cells [2]): > 350 µM (not active)

COc1ccc(N2/C(=N/C(=O)CCC3CCCC3)SC3CS(=O)(=O)CC32)cc1 (stereo unspecified)
EC50 (cells [1]): > 350 µM (not active)
EC50 (cells [2]): > 350 µM (not active)

CSc1ccccc1N=C(S)NCc1ccc(Cl)cc1
EC50 [5]: 4.54 µM (active)
EC50 (H4): 9.9 µM (active)
EC50 [6]: 5.76 µM (active)

O=C(c1cccc(C(F)(F)F)c1)C1CCCN(C(=O)Cn2cncn2)C1 (stereo unspecified)
EC50 (cells [1]): > 350 µM (not active)
EC50 (cells [2]): > 350 µM (not active)

O=C(NCCCC1CCCC1)C1CCC(=O)N(Cc2cccc(F)c2)C1 (stereo unspecified)
EC50 [5]: > 120 µM (not active)
EC50 (H4): > 120 µM (not active)
EC50 [6]: > 120 µM (not active)

COc1ccc(NC(=O)CSc2nc(O)c3c(n2)CCC3)cc1OC
EC50 (cells [1]): > 350 µM (not active)
EC50 (cells [2]): > 350 µM (not active)

CN(C)c1ccc(/C=N/NC(=S)NCc2ccco2)cc1
EC50 [5]: 15.3 µM (active)
EC50 (H4): > 120 µM (not active)
EC50 [6]: 8.41 µM (active)

CNC(=O)C1CCN(S(=O)(=O)c2c(C)noc2/C=C/c2ccccc2F)CC1
EC50 [5]: 21.8 µM (active)
EC50 (H4): > 120 µM (not active)
EC50 [6]: 12.8 µM (active)
